The target in experiment [1] is HDAC1 (Homo sapiens (Human), UniProt Q13547). The experiment in a line: HDAC inhibition assay. The following applies: read-out: IC50 HDAC1.
Description: (§2) All histone deacetylases were purchased from BPS Bioscience. […] All the other reagents were purchased from Sigma-Aldrich. Caliper EZ reader II system was used to collect all data. […] Purified HDACs were incubated with 2 μM carboxyfluorescein (FAM)-labeled acetylated or trifluoroacetylated peptide substrate (Broad Substrate A and B respectively) and test compound for 60 minutes at room temperature, in HDAC assay buffer that contained 50 mM HEPES (pH 7.4), 100 mM KCl, 0.01% BSA and 0.001% Tween-20. […] Substrate and product were separated electrophoretically and fluorescence intensity in the substrate and product peaks was determined and analyzed by Labchip EZ Reader. The reactions were performed in duplicate for each sample. IC50 values were automatically calculated by Origin 8 using 4 Parameter Logistic Model. The percent inhibition was plotted against the compound concentration, and the IC50 value was determined from the logistic dose-response curve fitting by Origin 8.0 software.
Experiment [2] deals with HDAC4 (Homo sapiens (Human), UniProt P56524). The experiment in a line: HDAC inhibition assay. Particulars: read-out: IC50 HDAC4.
Description: as §2
Experiment [3] addresses HDAC2 (Homo sapiens (Human), UniProt Q92769). In words: HDAC inhibition assay. Type of experiment: biochemical. From the text: (§1) All histone deacetylases were purchased from BPS Bioscience. […] All the other reagents were purchased from Sigma-Aldrich.
For experiment [4], the target named is HDAC6 (Homo sapiens (Human), UniProt Q9UBN7). The experiment in a line: HDAC inhibition assay. Type of experiment: biochemical.
Description: as §1

Experiment [5] addresses HDAC8 (Homo sapiens (Human), UniProt Q9BY41). In words: HDAC inhibition assay. Type of experiment: biochemical.
Description: as §1

The target in experiment [6] is HDAC9 (Homo sapiens (Human), UniProt Q9UKV0). The experiment in a line: HDAC inhibition assay. The following applies: read-out: IC50 HDAC9.
Description: as §2
In experiment [7] the target is HDAC5 (Homo sapiens (Human), UniProt Q9UQL6). In words: HDAC inhibition assay. Particulars: read-out: IC50 HDAC5.
Description: as §2
Experiment [8] concerns the target HDAC3 (Homo sapiens (Human), UniProt O15379). The experiment in a line: HDAC inhibition assay. The following applies: read-out: IC50 HDAC3.
Description: as §2
Experiment [9] deals with HDAC7 (Homo sapiens (Human), UniProt Q8WUI4). In words: HDAC inhibition assay. The following applies: read-out: IC50 HDAC7.
Description: as §2
The subject of experiment [10] is histone deacetylases. In words: Rodent PET/CT imaging with [11C]CN133. Type of experiment: in vivo, rats (Sprague Dawley). Particulars: for [11C]CN133 uptake in peripheral organs/regions of rats after treatment: peripheral organs (heart wall, kidney cortex, spleen); for blocking of [11C]CN133 uptake in rat brain after pretreatment: whole brain, 5-minute pretreatment. Here is the method:
Male Sprague-Dawley rats were utilized in pairs, anesthetized with inhalational isoflurane (Forane) at 3% in a carrier of 2 L/min medical oxygen and maintained at 2% isoflurane for the duration of the scan. The rats were arranged head-to-head in a Triumph Trimodality PET/CT/SPECT scanner (Gamma Medica, Northridge, Calif., USA). Rats were injected standard references or vehicle via a lateral tail vein catheterization at the start of PET acquisition. Dynamic PET acquisition lasted for 60 minutes and was followed by computed tomography (CT) for anatomic coregistration. PET data were reconstructed using a 3D-MLEM method resulting in a full width at half-maximum resolution of 1 mm. Reconstructed images were exported from the scanner in DICOM format along with an anatomic CT for rodent studies. These files were imported to PMOD (PMOD Technologies, Ltd.) and manually coregistered using six degrees of freedom.
Volumes of interest (VOIs) were drawn manually as spheres in brain regions guided by high resolution CT structural images and summed PET data, with a radius no less than 1 mm to minimize partial volume effects. Time-activity curves (TACs) were exported in terms of decay corrected activity per unit volume at specified time points with gradually increasing intervals. The TACs were expressed as percent injected dose per unit volume for analysis.

Experiment [11] deals with histone deacetylases. In words: Baboon PET/MR imaging with [11C]CN133. The following applies: heart, spleen, kidney, pancreas; CN133 0.5 mg/kg 10-minute pre-treatment; SAHA infusion 5 mg/kg. Type of experiment: in vivo, baboon (Papio anubis). Here is the method: A female Papio Anubis baboon, deprived of food for 12 hours prior to the study, was administered intramuscular ketamine (10 mg/kg) and intubated. For maintenance of anesthesia throughout the study, the baboon was provided 1%-4% isoflurane (Forane) in a mixture of medical oxygen and nitrogen. The baboon was catheterized antecubitally for radiotracer injection and a radial arterial line was placed for metabolite analysis. MR-PET images were acquired in a BiographmMR scanner (Siemens, Munich, Germany), and PET compatible 8-channel coil arrays for non-human primate brain imaging with a PET resolution of 5 mm and field of view of 59.4 cm and 25.8 cm (transaxial and axial, respectively). Dynamic PET image acquisition was initiated followed by administration of the radiotracer in a homogenous solution of 10% ethanol and 90% isotonic saline. An […] sequence began after 30 minutes of the baseline scan for anatomic coregistration. […] Both scans were carried out in the same animal on the same day, separated by 2.5 hours. In both scans, 4-5 mCi of [^11C]CN133 was administered to the baboon. Dynamic data from the PET scans were recorded in list mode and corrected for attenuation. Baboon data were reconstructed using a 3D-OSEM method resulting in a full width at half-maximum resolution of 4 mm.
Volumes of interest (VOIs) were drawn manually as spheres in brain regions guided by high resolution MR structural images and summed PET data, with a radius no less than 4 mm. A common VOI mask was applied to both baboon scans. Time-activity curves (TACs) were exported in terms of decay corrected activity per unit volume at specified time points with gradually increasing intervals. The TACs were expressed as percent injected dose per unit volume for analysis.
Arterial samples collected during imaging from the baboon were centrifuged to obtain plasma, which was then removed and placed in an automated gamma counter that was calibrated to the PET scanner. Metabolite analysis was conducted on a custom automated robot fitted with Phenomenex SPE Strata-X 500 mg solid phase extraction cartridges that were primed with ethanol (2 mL) and deionized water (20 mL). Protein precipitation was achieved by addition of plasma (300 μL) to acetonitrile (300 μL), which was centrifuged for 1 minute to obtain protein-free plasma (PFP). 300 μL of PFP/acetonitrile solution was diluted into deionized water (3 mL), loaded onto the C18 cartridge, and removed of polar metabolites with 100% water. Next, a series of extractions were performed using water and acetonitrile in quantities: 95:5, 90:10, 85:15, 80:20, 70:30, 60:40, 30:70 and 100% acetonitrile at a volume of 4 mL. A control experiment was performed before metabolite analysis to determine the retention of the parent compound by injection of a small amount of [^11C]CN133 onto a test series of extraction cartridges. Each sample was counted in a WIZARD2 Automatic Gamma Counter to determine the presence of radiolabeled metabolites.
CN147 blocks ˜40% of [^11C]CN133 binding in NHP whole brain and in cerebellum. Plasma-normalized data were evaluated by volume of interest analysis (VOI) at the whole brain level and at level of the cerebellum. VOI data were then applied to distribution volume (VT) data analysis by two graphical methods using PMOD software, tabulated in Tables A and B below. Logan Plot and Ichese MAI methods were clarified from previous NHP imaging analyses to provide an accurate VT estimate (+/− standard error) from data beginning 35 min after injection of radiotracer (t*=35 min) until the end of the scan (t=80min).

“Also recorded” adds a separate entry of the source. A value given as a limit tells only on which side of the number the result lay.

Chain of HDAC3 (O15379 whole entry): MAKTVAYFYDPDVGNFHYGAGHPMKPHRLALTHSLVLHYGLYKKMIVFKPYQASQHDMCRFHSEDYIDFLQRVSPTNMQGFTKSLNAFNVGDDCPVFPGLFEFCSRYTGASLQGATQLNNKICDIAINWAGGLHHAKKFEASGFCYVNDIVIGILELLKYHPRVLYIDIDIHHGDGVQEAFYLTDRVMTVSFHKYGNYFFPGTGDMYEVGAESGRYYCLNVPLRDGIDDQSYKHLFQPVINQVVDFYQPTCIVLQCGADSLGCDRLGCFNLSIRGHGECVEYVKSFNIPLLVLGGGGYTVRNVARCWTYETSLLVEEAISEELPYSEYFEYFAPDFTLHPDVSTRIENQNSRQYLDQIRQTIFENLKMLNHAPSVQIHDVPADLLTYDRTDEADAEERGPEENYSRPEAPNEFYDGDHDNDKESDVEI
Chain of HDAC3 (Q9Y618 395-489 partner): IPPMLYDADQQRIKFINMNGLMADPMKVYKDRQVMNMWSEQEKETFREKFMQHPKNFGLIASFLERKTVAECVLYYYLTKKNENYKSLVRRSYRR
Chain of HDAC2 (Q92769 whole entry): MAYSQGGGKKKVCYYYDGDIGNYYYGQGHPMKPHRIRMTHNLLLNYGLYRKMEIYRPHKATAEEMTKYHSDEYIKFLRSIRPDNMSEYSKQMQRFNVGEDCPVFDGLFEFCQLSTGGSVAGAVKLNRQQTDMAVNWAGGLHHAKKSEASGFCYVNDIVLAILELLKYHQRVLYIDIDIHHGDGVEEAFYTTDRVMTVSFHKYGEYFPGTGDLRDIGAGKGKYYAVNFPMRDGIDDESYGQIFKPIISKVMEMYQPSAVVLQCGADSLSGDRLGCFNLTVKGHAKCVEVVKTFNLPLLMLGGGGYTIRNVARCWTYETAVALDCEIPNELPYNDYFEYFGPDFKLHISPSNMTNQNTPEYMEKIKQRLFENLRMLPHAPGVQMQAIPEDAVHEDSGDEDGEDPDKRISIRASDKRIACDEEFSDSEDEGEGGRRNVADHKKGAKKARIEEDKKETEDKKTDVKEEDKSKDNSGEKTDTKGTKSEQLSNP
Chain of HDAC9 (Q9UKV0 whole entry): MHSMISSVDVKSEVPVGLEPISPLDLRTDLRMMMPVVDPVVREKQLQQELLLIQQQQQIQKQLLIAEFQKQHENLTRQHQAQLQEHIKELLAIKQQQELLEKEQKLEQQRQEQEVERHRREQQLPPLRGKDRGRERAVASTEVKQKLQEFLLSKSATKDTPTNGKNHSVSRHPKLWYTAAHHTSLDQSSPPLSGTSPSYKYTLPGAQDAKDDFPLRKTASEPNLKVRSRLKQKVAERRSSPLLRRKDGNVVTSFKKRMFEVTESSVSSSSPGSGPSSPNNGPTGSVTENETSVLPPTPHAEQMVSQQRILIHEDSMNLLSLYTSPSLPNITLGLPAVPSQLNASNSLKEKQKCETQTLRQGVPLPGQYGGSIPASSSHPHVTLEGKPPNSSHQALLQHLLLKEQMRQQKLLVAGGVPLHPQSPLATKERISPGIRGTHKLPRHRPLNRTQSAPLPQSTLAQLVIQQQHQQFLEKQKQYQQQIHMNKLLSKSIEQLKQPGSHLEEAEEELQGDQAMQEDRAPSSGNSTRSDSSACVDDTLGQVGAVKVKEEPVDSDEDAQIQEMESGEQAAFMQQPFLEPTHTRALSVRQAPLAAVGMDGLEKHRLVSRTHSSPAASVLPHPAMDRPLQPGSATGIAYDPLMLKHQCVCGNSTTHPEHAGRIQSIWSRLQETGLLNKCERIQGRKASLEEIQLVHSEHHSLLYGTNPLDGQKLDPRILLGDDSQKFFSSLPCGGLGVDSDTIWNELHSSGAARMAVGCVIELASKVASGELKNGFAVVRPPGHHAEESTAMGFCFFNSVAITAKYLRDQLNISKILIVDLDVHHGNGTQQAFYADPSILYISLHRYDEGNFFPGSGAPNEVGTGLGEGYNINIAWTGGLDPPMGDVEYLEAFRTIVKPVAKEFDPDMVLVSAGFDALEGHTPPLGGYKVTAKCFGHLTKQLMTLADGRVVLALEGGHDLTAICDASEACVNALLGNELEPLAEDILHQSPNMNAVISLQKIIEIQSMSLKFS
Chain of HDAC4 (P56524 whole entry): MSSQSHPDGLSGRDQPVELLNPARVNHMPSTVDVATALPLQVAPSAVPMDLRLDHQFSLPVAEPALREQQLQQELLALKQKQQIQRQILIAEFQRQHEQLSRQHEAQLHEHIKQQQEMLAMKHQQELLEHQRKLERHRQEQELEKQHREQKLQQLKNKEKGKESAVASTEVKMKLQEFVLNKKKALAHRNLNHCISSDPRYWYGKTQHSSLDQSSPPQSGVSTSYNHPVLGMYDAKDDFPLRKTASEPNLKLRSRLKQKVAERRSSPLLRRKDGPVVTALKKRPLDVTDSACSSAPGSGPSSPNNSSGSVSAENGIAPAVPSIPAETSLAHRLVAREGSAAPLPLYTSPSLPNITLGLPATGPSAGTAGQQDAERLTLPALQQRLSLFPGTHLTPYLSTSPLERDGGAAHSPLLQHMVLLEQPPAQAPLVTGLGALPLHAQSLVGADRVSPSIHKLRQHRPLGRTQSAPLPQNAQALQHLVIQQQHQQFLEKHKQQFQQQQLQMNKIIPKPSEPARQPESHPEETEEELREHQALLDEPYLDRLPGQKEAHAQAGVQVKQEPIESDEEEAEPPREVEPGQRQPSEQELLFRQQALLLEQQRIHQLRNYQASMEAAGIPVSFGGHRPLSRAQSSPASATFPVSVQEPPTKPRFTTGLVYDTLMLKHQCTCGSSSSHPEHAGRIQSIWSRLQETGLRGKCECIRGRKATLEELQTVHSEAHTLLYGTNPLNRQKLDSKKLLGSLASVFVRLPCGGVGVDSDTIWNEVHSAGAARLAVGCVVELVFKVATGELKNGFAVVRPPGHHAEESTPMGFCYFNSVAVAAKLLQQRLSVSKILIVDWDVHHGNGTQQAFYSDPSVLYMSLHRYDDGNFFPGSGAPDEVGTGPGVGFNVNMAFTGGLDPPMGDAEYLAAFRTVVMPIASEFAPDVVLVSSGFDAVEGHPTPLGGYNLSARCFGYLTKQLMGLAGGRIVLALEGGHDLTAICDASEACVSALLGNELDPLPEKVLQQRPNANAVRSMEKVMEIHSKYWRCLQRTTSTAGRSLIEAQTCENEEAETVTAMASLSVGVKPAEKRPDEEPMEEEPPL
Chain of HDAC5 (Q9UQL6 whole entry): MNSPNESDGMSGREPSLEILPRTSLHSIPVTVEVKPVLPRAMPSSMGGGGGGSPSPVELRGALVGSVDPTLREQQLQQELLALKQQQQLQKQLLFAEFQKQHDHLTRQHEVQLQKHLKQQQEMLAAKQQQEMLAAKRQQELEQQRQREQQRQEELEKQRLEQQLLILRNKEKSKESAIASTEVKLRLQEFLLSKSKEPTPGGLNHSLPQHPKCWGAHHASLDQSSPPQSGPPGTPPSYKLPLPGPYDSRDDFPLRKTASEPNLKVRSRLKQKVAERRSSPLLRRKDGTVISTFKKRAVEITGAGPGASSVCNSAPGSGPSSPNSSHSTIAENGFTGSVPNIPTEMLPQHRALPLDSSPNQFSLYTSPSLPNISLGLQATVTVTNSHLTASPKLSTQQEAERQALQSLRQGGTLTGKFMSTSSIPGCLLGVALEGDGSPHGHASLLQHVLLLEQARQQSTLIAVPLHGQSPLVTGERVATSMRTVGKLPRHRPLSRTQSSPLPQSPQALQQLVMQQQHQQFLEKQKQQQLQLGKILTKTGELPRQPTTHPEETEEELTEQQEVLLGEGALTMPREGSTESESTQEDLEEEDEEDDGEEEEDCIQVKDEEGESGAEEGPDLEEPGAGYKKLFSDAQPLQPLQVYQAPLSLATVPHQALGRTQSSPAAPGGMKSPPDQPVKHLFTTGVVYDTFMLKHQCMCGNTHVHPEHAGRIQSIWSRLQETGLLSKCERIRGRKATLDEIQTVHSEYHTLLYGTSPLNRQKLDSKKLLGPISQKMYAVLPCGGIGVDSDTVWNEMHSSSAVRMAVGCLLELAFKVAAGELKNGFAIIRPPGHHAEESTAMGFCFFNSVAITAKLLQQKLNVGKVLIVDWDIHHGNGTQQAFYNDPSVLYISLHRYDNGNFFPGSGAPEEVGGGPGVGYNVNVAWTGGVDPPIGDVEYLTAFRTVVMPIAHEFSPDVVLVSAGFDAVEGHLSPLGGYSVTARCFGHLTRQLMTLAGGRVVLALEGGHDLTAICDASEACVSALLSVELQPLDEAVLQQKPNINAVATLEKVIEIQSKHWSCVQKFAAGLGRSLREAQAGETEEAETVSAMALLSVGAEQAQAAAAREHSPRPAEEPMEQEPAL
Chain of HDAC1 (Q13547 whole entry): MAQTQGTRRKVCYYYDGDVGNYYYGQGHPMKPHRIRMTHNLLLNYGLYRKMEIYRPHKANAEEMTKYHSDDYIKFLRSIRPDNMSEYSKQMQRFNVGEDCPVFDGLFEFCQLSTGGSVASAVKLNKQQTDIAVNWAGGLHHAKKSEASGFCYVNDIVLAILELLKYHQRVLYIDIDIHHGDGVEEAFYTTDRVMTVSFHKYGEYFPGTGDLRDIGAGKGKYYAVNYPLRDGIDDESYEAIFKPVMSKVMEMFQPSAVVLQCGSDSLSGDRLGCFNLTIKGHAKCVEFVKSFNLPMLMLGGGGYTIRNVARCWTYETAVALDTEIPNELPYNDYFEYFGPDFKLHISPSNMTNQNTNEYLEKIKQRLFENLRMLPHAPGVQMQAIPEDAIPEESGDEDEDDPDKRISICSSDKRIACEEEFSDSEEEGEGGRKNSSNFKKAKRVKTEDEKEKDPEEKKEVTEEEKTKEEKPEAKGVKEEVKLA

As to `COc1ccc2c(c1)C(=O)N(CCCCCC(=O)NO)c1ccccc1S2(=O)=O` [CN113], the concentration for half-maximal inhibition (IC50) (usually the midpoint of a concentration-inhibition curve) in experiment [1] is 0.8 nM; in experiment [2], 9450 nM; in experiment [3] it was 2 nM; in [4] it was 1.2 nM; in [5], 2840 nM; in [6], greater than 20000 nM. The IC50 was 3850 nM in [7], 1.3 nM in [8] and 9650 nM in [9].

`O=C(/C=C/c1ccc(CNCC23CC4CC(CC(C4)C2)C3)c(F)c1)NO` [CN148]: the IC50 in experiment [1] was 0.78 nM; in experiment [2], greater than 70000 nM; in experiment [3], 6.4 nM; in experiment [4], 9.5 nM; in experiment [5], 4900 nM; in [6], greater than 50000 nM. In addition, the IC50 was 4310 nM in [7], 0.5 nM in [8] and greater than 50000 nM in experiment [9].

On to `CN(Cc1ccc2c(c1)CCC(C(=O)NO)=C2)CC12CC3CC(CC(C3)C1)C2` [CN141], for which the IC50 in experiment [1] is 55.8 nM; in experiment [2] it was 389 nM; in experiment [4], 14.4 nM; in experiment [5] it was 2400 nM; in experiment [6], greater than 10000 nM; in experiment [7], 207 nM. In addition, the IC50 in [8] was found to be 97.9 nM; in [9], 5510 nM.

Regarding `O=C(CCCCCCC(=O)Nc1ccccc1)NO` [SAHA, suberanilohydroxamic acid, reference compound], in experiment [10], the “[11C]CN133 uptake in peripheral organs/regions of rats after treatment” value is given as “decreased uptake” and the “blocking of [11C]CN133 uptake in rat brain after pretreatment” value is listed as “no significant change; also recorded: did not block the brain uptake”. In [11], the “blocking of [11C]CN133 uptake in baboon peripheral organs (time-activity curves)” value was “significant blocking”.

For the molecule `O=C(/C=C/c1ccc(CNCC2CCCCC2)cc1)NO` [CN143], the IC50 in experiment [1] was 1.8 nM; in experiment [2], 927 nM; in experiment [4] it was 9.7 nM; in [5], 9600 nM; in experiment [6] it was greater than 10000 nM; in [7], 196 nM. For the same molecule, the figures for the IC50 in experiment [8] and in experiment [9] were 4.3 nM and greater than 20000 nM, respectively.

Take `O=C(/C=C/c1ccc(CN(CCF)CC23CC4CC(CC(C4)C2)C3)cc1)NO` [CN146]: the IC50 in experiment [1] is 221 nM; in experiment [2] it was greater than 10000 nM; in experiment [4], 308 nM; in [5] it was greater than 30000 nM; in experiment [6] it was greater than 40000 nM; in experiment [7], 5350 nM. Also, the IC50 is 470 nM in experiment [8] and greater than 30000 nM in experiment [9].

Regarding `CN(c1ccccc1)S(=O)(=O)c1cccc(/C=C/C(=O)NO)c1` [CN88], the IC50 was 17.8 nM in experiment [1]; 3830 nM in experiment [2]; 52.9 nM in experiment [3]; 4.1 nM in experiment [4]; 925 nM in experiment [5]; greater than 10000 nM in [6]. Further, the IC50 in [7] came out at 7950 nM; in experiment [8] it was 13.7 nM; in experiment [9], 2020 nM.

With `COc1ccc(/C=C/C(=O)NO)cc1` [CN87], the IC50 in experiment [1] was 301 nM; in experiment [2] it was greater than 70000 nM; in [3] it was 833 nM; in experiment [4] it was 23.2 nM; in experiment [5], 2570 nM; in experiment [6], greater than 70000 nM. Further, the IC50 was greater than 10000 nM in [7], 238 nM in experiment [8] and greater than 70000 nM in experiment [9].

Regarding `O=C(NO)c1ccc(C2=Nc3ccccc3Oc3ccccc32)cc1` [CN54], the “[11C]CN133 uptake in peripheral organs/regions of rats after treatment” value in experiment [10] is on record as “decreased uptake”. The “blocking of [11C]CN133 uptake in rat brain after pretreatment” value in experiment [10] was “blocked; also recorded: activity blocking”. Moreover, the results for the IC50 in experiment [1], in [3] and in experiment [8] were 56.1 nM, 53.7 nM and 7.1 nM, respectively.

Take `Cn1cc(CCNCc2ccc(/C=C/C(=O)NO)cc2)c2ccccc21` [CN107]: the IC50 in [1] came out at 0.2 nM; in experiment [2], 655 nM; in experiment [3], 1.2 nM; in experiment [4], 1.6 nM; in [5], 1040 nM; in [6], 4850 nM. For the same molecule, the IC50 in [7] came out at 99 nM; in [8] it was 0.4 nM; in [9] it was 2040 nM.

Take `CCCCc1nc2cc(/C=C/C(=O)NO)ccc2n1CCN(C)C` [CN101]: the half-maximal inhibitory concentration (IC50) in experiment [1] was 4.7 nM; in [2] it was greater than 10000 nM; in experiment [3] it was 18 nM; in [4], 8.4 nM; in [5] it was 2370 nM; in [6] it was greater than 50000 nM. In addition, the IC50 was greater than 10000 nM in experiment [7], 1.9 nM in experiment [8] and greater than 40000 nM in [9].

For the molecule `O=C(/C=C/c1ccccc1)NO` [CN86], the half-maximal inhibitory concentration (IC50) in [1] was 133 nM; in experiment [2] it was greater than 10000 nM; in [3], 470 nM; in experiment [4], 21.7 nM; in experiment [5] it was 725 nM; in experiment [6], greater than 50000 nM. The results for the IC50 in experiment [7], in experiment [8] and in [9] were greater than 10000 nM, 151 nM and greater than 20000 nM, respectively.
